The values that follow come from ChEMBL document CHEMBL1212883, “Limonoids from the leaves of Cipadessa baccifera” (J Nat Prod, 2010).

Type in all cases: functional, cell-based
One test deals with SMMC-7721. The experiment in a line: Cytotoxicity against human SMMC7721 cells after 72 hrs by MTT assay. Conditions: SMMC-7721, 72 h. In general terms: Formazan colour is commonly taken as a measure of viable cells.
The next test deals with MCF7. The experiment in a line: Cytotoxicity against human MCF7 cells after 72 hrs by MTT assay. Conditions: MCF7, 72 h.
The subject of the next test is HL-60. The experiment in a line: Cytotoxicity against human HL60 cells after 72 hrs by MTT assay. The following applies: HL-60, 72 h.
Another test has as its system A549. The experiment in a line: Cytotoxicity against human A549 cells after 72 hrs by MTT assay. The following applies: A549, 72 h.
The subject of the next test is SW480. Nature of the test: Cytotoxicity against human SW480 cells after 72 hrs by MTT assay. Conditions: SW480, 72 h.

The IC50 is the point on the concentration scale where inhibition reaches its midpoint. Low values mean inhibition by little substance, high ones a need for much substance. On to `CCC(C)C(=O)O[C@@H]1[C@@H]2OC[C@]3(C)[C@H](OC(C)=O)C[C@H](OC(C)=O)[C@@](C)([C@@H]23)[C@H]2CC[C@]3(C)C(=CC(=O)[C@H]3c3ccoc3)[C@]12C` (stereo not given in full) [CIPADESIN L], for which the IC50 in the test with SMMC-7721, in the test on MCF7, in the test on HL-60, in the test on A549 and with SW480 was > 40 µM throughout.
As to `CCC(C)C(=O)O[C@@H]1[C@@H]2OC[C@]3(C)[C@H](OC(C)=O)C[C@H](OC(C)=O)[C@](C)([C@H]4CC[C@@]5(C)[C@H](c6ccoc6)C(=O)[C@@H]6O[C@@]65[C@]14C)[C@@H]23` (stereo not given in full) [CIPADESIN M], the IC50 in the test with SMMC-7721, in the test on MCF7, in the test on HL-60, in the test on A549 and in the test with SW480 was > 40 µM in each case.
On to `C=C1[C@]2(O)C(=O)C[C@@]3(C)[C@H](c4ccoc4)OC(=O)C[C@]13O[C@H]1[C@@H](OC(C)=O)[C@@H](OC(C)=O)C(C)(C)[C@H](CC(=O)OC)[C@]12C` [CIPADESIN P], for which the IC50 in the test with SMMC-7721, in the test with MCF7, in the test with HL-60, in the test on A549 and with SW480 was > 40 µM in each case.
Take `CCC(C)C(=O)O[C@@H]1[C@H]2C(=O)[C@](C)(C3=CC[C@]4(C)[C@@H](CC(=O)O[C@H]4c4ccoc4)[C@]34O[C@H]24)[C@@H](CC(=O)OC)C1(C)C` (stereo not given in full) [CIPADESIN O]: the IC50 in the test with SMMC-7721, with MCF7, with HL-60, in the test with A549 and with SW480 was > 40 µM each time.
`CCC(C)C(=O)O[C@H]1C(C)(C)[C@H](CC(=O)OC)[C@]2(C)C(=O)[C@@]1(O)CC1=C3CC(=O)O[C@@H](c4ccoc4)[C@]3(C)CC[C@@H]12` (stereo not given in full) [CIPADESIN N]: the IC50 in the test on SMMC-7721, in the test with MCF7, in the test with HL-60, in the test on A549 and in the test on SW480 was > 40 µM in each case.
As to `CCC(C)C(=O)O[C@@H]1[C@@H]2OC[C@]3(C)[C@H](OC(C)=O)C[C@H](OC(C)=O)[C@](C)([C@H]4CC[C@@]5(C)[C@H](c6ccoc6)OC(=O)[C@@H]6O[C@@]65[C@]14C)[C@@H]23` (stereo not given in full) [CIPADESIN K], the IC50 was > 40 µM with SMMC-7721; > 40 µM in the test on MCF7; > 40 µM in the test on HL-60; > 40 µM with A549; 36.6 µM with SW480.
As to `CC(=O)O[C@H]1C[C@@H](OC(C)=O)[C@@]2(C)CO[C@H]3[C@@H](O)[C@]4(C)[C@H](CC[C@@]5(C)[C@H](c6ccoc6)OC(=O)[C@@H]6O[C@]645)[C@]1(C)[C@@H]32` [CIPADESIN J], the IC50 in the test on SMMC-7721 was 20.4 µM; in the test with MCF7 it was > 40 µM; in the test on HL-60 it was > 40 µM; in the test on A549 it was > 40 µM; in the test with SW480 it was 20.2 µM.
With `C=C1[C@]2(O)CC[C@@]3(C)[C@H](c4ccoc4)OC(=O)C[C@]13O[C@H]1C[C@@H](OC(C)=O)C(C)(C)[C@H](CC(=O)OC)[C@]12C` [CIPADESIN Q], the IC50 in the test on SMMC-7721, with MCF7, in the test with HL-60, in the test with A549 and with SW480 was > 40 µM throughout.
